Test [1] has as its target T1, DNA gyrase (Staphylococcus aureus) (UniProt P0A0K8+P20831). The test can be described thus: In vitro antibacterial activity against gram-positive organism Staphylococcus aureus ATCC 6538p. The test is classed as functional.
Test [2] deals with T1, DNA gyrase (Staphylococcus aureus). The test can be described thus: In vitro antibacterial activity against gram-positive organism Staphylococcus aureus 1775. It counts as functional.
Test [3] concerns the target T2, DNA gyrase (Escherichia coli) (UniProt P0AES6+P0AES4). The test can be described thus: In vitro antibacterial activity against gram-negative organism Klebsiella pneumoniae ATCC 8045. The test is classed as functional.
The next test relates to Streptococcus pyogenes. The test can be described thus: In vitro antibacterial activity against gram-positive organism Streptococcus pyogenes EES61. The test is classed as functional. The following applies: Streptococcus pyogenes; read-out: MIC.
Test [4] can be described thus: In vitro antibacterial activity against gram-negative organism Pseudomonas aeruginosa DPHD-2862. It counts as functional. The following applies: Pseudomonas aeruginosa; read-out: MIC.
Test [5] concerns the target T2, DNA gyrase (Escherichia coli). Nature of the test: In vitro antibacterial activity against gram-positive organism Streptococcus bovis A-5169. It counts as functional. The settings on record: Streptococcus equinus.
Test [6] has the same target. The test can be described thus: In vitro antibacterial activity against gram-negative organism Prov. stuartii CMX-640. The settings on record: Providencia stuartii. It counts as functional.
Test [7] shares this target. The settings on record: Escherichia coli K-12.
Description: Concentration which causes 50% of the gyrase (Escherichia coli H560)-mediated maximal DNA cleavage.
For test [8] the target is unchanged. The test can be described thus: In vitro antibacterial activity against gram-positive organism Enterococcus faecium ATCC 8043. It counts as functional.
Test [9] concerns the target T1, DNA gyrase (Staphylococcus aureus). Nature of the test: In vitro antibacterial activity against gram-positive organism Staphylococcus aureus NCTC-10649M. The test is classed as functional.
Test [10] has as its target T2, DNA gyrase (Escherichia coli). Nature of the test: In vitro antibacterial activity against gram-negative organism […] ATCC 13048. The test is classed as functional. The settings on record: Enterobacter aerogenes.
The target is the same in test [11]. The test can be described thus: In vitro antibacterial against gram-negative organism Escherichia coli JUHL. The test is classed as functional. The following applies: Escherichia coli K-12.
Test [12] can be described thus: In vitro antibacterial activity against gram-negative organism Pseudomonas aeruginosa 5007. It counts as functional. The settings on record: Pseudomonas aeruginosa; read-out: MIC.

For eight molecules, MIC and CC50 results are on record in ChEMBL document CHEMBL1129258, “Synthesis and structure-activity relationships of 2-pyridones: a novel series of potent DNA gyrase inhibitors as antibacterial agents” (J Med Chem, 1996).

Molecules are shown by their SMILES. Converted amounts (≈) assume the structure as drawn.

T1 sequence (P0A0K8 2-644 limits assumed): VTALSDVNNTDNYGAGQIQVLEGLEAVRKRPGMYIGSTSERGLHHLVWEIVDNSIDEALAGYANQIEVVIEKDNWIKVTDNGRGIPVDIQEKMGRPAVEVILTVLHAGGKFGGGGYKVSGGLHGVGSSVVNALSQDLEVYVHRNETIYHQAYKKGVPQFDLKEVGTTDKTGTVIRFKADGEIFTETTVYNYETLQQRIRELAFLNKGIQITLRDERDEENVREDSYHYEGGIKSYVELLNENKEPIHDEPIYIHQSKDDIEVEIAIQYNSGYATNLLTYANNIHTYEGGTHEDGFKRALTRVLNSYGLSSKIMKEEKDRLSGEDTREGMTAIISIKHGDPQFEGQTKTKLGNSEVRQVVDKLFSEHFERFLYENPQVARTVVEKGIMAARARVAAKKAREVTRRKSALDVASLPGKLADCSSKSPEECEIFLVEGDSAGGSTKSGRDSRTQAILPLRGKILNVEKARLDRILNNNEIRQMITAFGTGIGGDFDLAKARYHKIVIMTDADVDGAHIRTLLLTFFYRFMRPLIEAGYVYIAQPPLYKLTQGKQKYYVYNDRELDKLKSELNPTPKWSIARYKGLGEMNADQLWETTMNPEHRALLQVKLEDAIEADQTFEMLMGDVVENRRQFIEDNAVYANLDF
T1 sequence (P20831 whole entry partner): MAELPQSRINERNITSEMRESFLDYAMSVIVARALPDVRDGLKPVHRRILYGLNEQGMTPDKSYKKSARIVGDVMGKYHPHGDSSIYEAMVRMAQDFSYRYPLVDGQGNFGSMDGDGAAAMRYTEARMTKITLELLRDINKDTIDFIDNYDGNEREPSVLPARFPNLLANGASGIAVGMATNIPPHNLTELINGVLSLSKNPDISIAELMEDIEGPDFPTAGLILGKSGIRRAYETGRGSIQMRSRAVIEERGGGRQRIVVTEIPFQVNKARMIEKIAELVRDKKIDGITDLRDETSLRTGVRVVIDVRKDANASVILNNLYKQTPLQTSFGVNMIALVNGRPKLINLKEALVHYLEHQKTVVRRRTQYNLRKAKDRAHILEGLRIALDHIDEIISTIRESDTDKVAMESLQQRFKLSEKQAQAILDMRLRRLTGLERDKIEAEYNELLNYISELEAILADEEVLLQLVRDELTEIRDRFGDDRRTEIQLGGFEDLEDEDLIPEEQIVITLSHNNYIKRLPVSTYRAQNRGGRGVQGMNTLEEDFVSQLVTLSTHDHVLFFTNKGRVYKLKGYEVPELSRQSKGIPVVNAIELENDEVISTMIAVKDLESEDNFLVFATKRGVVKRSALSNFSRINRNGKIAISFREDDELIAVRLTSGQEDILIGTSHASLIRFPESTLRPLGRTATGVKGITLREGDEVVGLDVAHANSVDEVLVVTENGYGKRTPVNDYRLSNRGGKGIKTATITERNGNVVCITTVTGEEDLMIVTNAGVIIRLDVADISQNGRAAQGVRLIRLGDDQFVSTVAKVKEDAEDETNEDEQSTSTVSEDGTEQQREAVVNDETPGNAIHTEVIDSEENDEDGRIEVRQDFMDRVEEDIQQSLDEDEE

Regarding `Cc1c(F)c(N2CCC(N)C2)cc2c(C3CC3)cc(C(=O)O)c(=O)n12` (centres undefined), the MIC in [1] is 0.78 µg/mL (≈ 2.26 µM); in test [2] it was 50 µg/mL (≈ 145 µM); in test [3], 0.1 µg/mL (≈ 0.29 µM); in the test with Streptococcus pyogenes, 3.1 µg/mL (≈ 8.98 µM); in [4] it was 100 µg/mL (≈ 290 µM); in test [5] it was 6.2 µg/mL (≈ 18 µM). Also, the MIC in test [6] was 12.5 µg/mL (≈ 36.2 µM); in test [8] it was 6.2 µg/mL (≈ 18 µM); in test [9] it was 1.56 µg/mL (≈ 4.52 µM); in [10], 0.39 µg/mL (≈ 1.13 µM); in test [11] it was 0.2 µg/mL (≈ 0.579 µM); in [12], 1.56 µg/mL (≈ 4.52 µM). For the same molecule, in test [7], the CC50 came to 10 µg/mL (≈ 29 µM).
Turning to `O=C(O)c1cc(C2CC2)c2cc(N3CCNCC3)c(F)cn2c1=O`, the MIC in test [1] stood at 0.2 µg/mL (≈ 0.604 µM); in [2] it was 50 µg/mL (≈ 151 µM); in test [3] it was 0.01 µg/mL (≈ 0.0302 µM); in the test with Streptococcus pyogenes, 1.56 µg/mL (≈ 4.71 µM); in test [4], 25 µg/mL (≈ 75.4 µM); in test [5], 3.1 µg/mL (≈ 9.36 µM). Further, the MIC in test [6] was 1.56 µg/mL (≈ 4.71 µM); in test [8], 0.78 µg/mL (≈ 2.35 µM); in test [9], 0.39 µg/mL (≈ 1.18 µM); in test [10] it was 0.05 µg/mL (≈ 0.151 µM); in test [11] it was 0.01 µg/mL (≈ 0.0302 µM); in [12] it was 0.39 µg/mL (≈ 1.18 µM). In test [7], this molecule gave a CC50 of 0.15 µg/mL (≈ 0.453 µM).
As for `COc1c(N2CCC(N)C2)c(F)cn2c(=O)c(C(=O)O)cc(C3CC3)c12` (centres undefined), the MIC was 0.05 µg/mL (≈ 0.138 µM) in test [1]; 3.1 µg/mL (≈ 8.58 µM) in test [2]; 0.01 µg/mL (≈ 0.0277 µM) in [3]; 0.2 µg/mL (≈ 0.553 µM) with Streptococcus pyogenes; 3.1 µg/mL (≈ 8.58 µM) in test [4]; 0.39 µg/mL (≈ 1.08 µM) in test [5]. In addition, the MIC in [6] worked out at 1.56 µg/mL (≈ 4.32 µM); in test [8], 0.2 µg/mL (≈ 0.553 µM); in test [9], 0.05 µg/mL (≈ 0.138 µM); in test [10], 0.05 µg/mL (≈ 0.138 µM); in test [11], 0.02 µg/mL (≈ 0.0553 µM); in test [12], 0.39 µg/mL (≈ 1.08 µM). In test [7], this molecule gave a CC50 of 0.3 µg/mL (≈ 0.83 µM).
For `CC(=O)N[C@H]1C[C@H](C)N(c2nc3c(-c4ccc(F)cc4F)cc(C(=O)O)c(=O)n3cc2F)C1`, the MIC is 0.1 µg/mL (≈ 0.217 µM) in [1]; 25 µg/mL (≈ 54.3 µM) in test [2]; 0.39 µg/mL (≈ 0.847 µM) in test [3]; 0.78 µg/mL (≈ 1.69 µM) with Streptococcus pyogenes; over 100 µg/mL in test [4]; 3.1 µg/mL (≈ 6.73 µM) in [5]. Moreover, the MIC in [6] turned out to be 25 µg/mL (≈ 54.3 µM); in [8], 1.56 µg/mL (≈ 3.39 µM); in test [9], 0.2 µg/mL (≈ 0.434 µM); in test [10] it was 3.1 µg/mL (≈ 6.73 µM); in test [11], 0.78 µg/mL (≈ 1.69 µM); in test [12], 3.1 µg/mL (≈ 6.73 µM). In [7], the CC50 turned out to be 1.3 µg/mL (≈ 2.82 µM).
On to `Cc1c(N2CCC(c3ccccn3)C2)c(F)cn2c(=O)c(C(=O)O)cc(C3CC3)c12` (centres undefined), for which the MIC stood at 0.01 µg/mL (≈ 0.0245 µM) in test [1]; 0.2 µg/mL (≈ 0.491 µM) in test [2]; 0.05 µg/mL (≈ 0.123 µM) in [3]; 0.05 µg/mL (≈ 0.123 µM) with Streptococcus pyogenes; 12.5 µg/mL (≈ 30.7 µM) in [4]; 0.05 µg/mL (≈ 0.123 µM) in test [5]. Further, the MIC worked out at 1.56 µg/mL (≈ 3.83 µM) in test [6]; 0.05 µg/mL (≈ 0.123 µM) in [8]; 0.02 µg/mL (≈ 0.0491 µM) in test [9]; 0.78 µg/mL (≈ 1.91 µM) in [10]; 0.05 µg/mL (≈ 0.123 µM) in test [11]; 0.78 µg/mL (≈ 1.91 µM) in [12]. In addition, the CC50 in test [7] came to 2.6 µg/mL (≈ 6.38 µM).
With `O=C(O)c1cc(C2CC2)c2nc(N3CCNCC3)c(F)cn2c1=O`, the MIC came to 0.78 µg/mL (≈ 2.35 µM) in test [1]; 50 µg/mL (≈ 150 µM) in test [2]; 0.05 µg/mL (≈ 0.15 µM) in test [3]; 12.5 µg/mL (≈ 37.6 µM) in the test with Streptococcus pyogenes; 100 µg/mL (≈ 301 µM) in [4]; 12.5 µg/mL (≈ 37.6 µM) in test [5]. The MIC in test [6] is 12.5 µg/mL (≈ 37.6 µM); in [8] it was 12.5 µg/mL (≈ 37.6 µM); in test [9], 1.56 µg/mL (≈ 4.69 µM); in test [10] it was 0.05 µg/mL (≈ 0.15 µM); in test [11] it was 0.05 µg/mL (≈ 0.15 µM); in [12], 0.39 µg/mL (≈ 1.17 µM). This molecule also registered a CC50 in test [7] of 2 µg/mL (≈ 6.02 µM).
As for `NC1CCN(c2nc3c(-c4c(F)c(F)c(F)c(F)c4F)cc(C(=O)O)c(=O)n3cc2F)C1` (centres undefined), the MIC in [1] is 50 µg/mL (≈ 109 µM); in test [2], over 100 µg/mL; in [3], 3.1 µg/mL (≈ 6.76 µM); in the test on Streptococcus pyogenes, over 100 µg/mL; in [4] it was over 100 µg/mL; in [5], over 100 µg/mL. Moreover, the MIC in [6] is over 100 pug ml-1; in test [8], over 100 µg/mL; in test [9], 50 µg/mL (≈ 109 µM); in test [10], 6.2 µg/mL (≈ 13.5 µM); in test [11], 6.2 µg/mL (≈ 13.5 µM); in test [12], 50 µg/mL (≈ 109 µM). The molecule further yielded a CC50 in [7] of 12.5 µg/mL (≈ 27.3 µM).
Take `CCc1cc(C(=O)O)c(=O)n2cc(F)c(N3CCC(N)C3)c(C)c12` (centres undefined): the MIC was found to be 0.1 µg/mL (≈ 0.3 µM) in test [1]; 12.5 µg/mL (≈ 37.5 µM) in test [2]; 0.02 µg/mL (≈ 0.06 µM) in test [3]; 0.39 µg/mL (≈ 1.17 µM) in the test on Streptococcus pyogenes; 12.5 µg/mL (≈ 37.5 µM) in test [4]; 0.78 µg/mL (≈ 2.34 µM) in test [5]. The MIC in [6] worked out at 0.78 µg/mL (≈ 2.34 µM); in [8], 0.2 µg/mL (≈ 0.6 µM); in test [9], 0.1 µg/mL (≈ 0.3 µM); in test [10], 0.05 µg/mL (≈ 0.15 µM); in test [11], 0.01 µg/mL (≈ 0.03 µM); in [12], 0.2 µg/mL (≈ 0.6 µM). This molecule showed a CC50 in [7] of 3.2 µg/mL (≈ 9.6 µM).
